The MIC is the lowest concentration that inhibits growth of the organism.

In ChEMBL document CHEMBL6087476, “Positive Charge-Concentrated Dimeric Lipopeptides with Enhanced Protease Resistance: A Potential Solution for Systemic Bacterial Infections” (J Med Chem, 2025) one finds MIC and Activity data, which are given here for four compounds.

Each structure is given as a SMILES string. ≈ marks a conversion by molar mass, not a printed value. Calls of active or inactive are those of the source. The calls are words filed in the database; no cut-off is given here.

In one experiment the test system is Pseudomonas aeruginosa. Briefly: Antimicrobial activity against Pseudomonas aeruginosa 25349 assessed as increase in absorbance incubated for 20 to 22 hrs. Type of experiment: functional. The following applies: time 20-22 hrs.
Experiment [1] has as its system Acinetobacter baumannii. The experiment in a line: Antimicrobial activity against Acinetobacter baumannii AB1902 assessed as increase in absorbance incubated for 20 to 22 hrs. It counts as functional. The following applies: time 20-22 hrs.
For the next experiment, the system named is Staphylococcus aureus. The experiment in a line: Antimicrobial activity against Staphylococcus aureus 11011 assessed as increase in absorbance incubated for 20 to 22 hrs. As to conditions: time 20-22 hrs. It counts as functional.
For experiment [2], the system named is Acinetobacter baumannii. The experiment in a line: Antimicrobial activity against Acinetobacter baumannii AB1901 assessed as increase in absorbance incubated for 20 to 22 hrs. Type of experiment: functional. As to conditions: time 20-22 hrs.
For experiment [3], the system named is Mus musculus. Briefly: Anti-inflammatory activity against Escherichia coli ATCC 25922-induced peritonitis ICR mouse model assessed as decrease in TNF-alpha level in serum spleen at 5 mg/kg, ip measured after 12 hrs. It counts as functional, organism-based.
The test system of experiment [4] is Mus musculus. The experiment in a line: Anti-inflammatory activity against Escherichia coli ATCC 25922-induced peritonitis ICR mouse model assessed as decrease in IL-1 beta level in serum spleen at 5 mg/kg, ip measured after 12 hrs. It counts as functional, organism-based.
Experiment [5] concerns Mus musculus. Briefly: Anti-inflammatory activity against Escherichia coli ATCC 25922-induced peritonitis ICR mouse model assessed as decrease in IL-6 level in serum spleen at 5 mg/kg, ip measured after 12 hrs. It counts as functional, organism-based.

On to `CC(C)(O/N=C(\C(=O)N[C@@H]1C(=O)N2C(C(=O)[O-])=C(C[n+]3ccccc3)CS[C@H]12)c1csc(N)n1)C(=O)O` [CEFTAZIDIME], for which the MIC with Pseudomonas aeruginosa was 0.5 µM (≈ 0.273 µg/mL); in the experiment on Acinetobacter baumannii [1], above 64 µM; with Staphylococcus aureus, above 64 µM; in the experiment on Acinetobacter baumannii [2], 0.5 µM (≈ 0.273 µg/mL).
Take `CNC(C)[C@@H]1CC[C@@H](N)[C@@H](O[C@H]2[C@H](O)[C@@H](O[C@H]3OC[C@](C)(O)[C@H](NC)[C@H]3O)[C@H](N)C[C@@H]2N)O1.CN[C@@H]1[C@@H](O)[C@@H](O[C@@H]2[C@@H](O)[C@H](O[C@H]3O[C@H](C(C)N)CC[C@H]3N)[C@@H](N)C[C@H]2N)OC[C@]1(C)O.CN[C@@H]1[C@@H](O)[C@@H](O[C@@H]2[C@@H](O)[C@H](O[C@H]3O[C@H](CN)CC[C@H]3N)[C@@H](N)C[C@H]2N)OC[C@]1(C)O` (some centres undefined): the MIC in the experiment on Pseudomonas aeruginosa is 0.25 µM; in the experiment with Acinetobacter baumannii [1] it was above 64 µM; with Staphylococcus aureus, above 64 µM; in the experiment with Acinetobacter baumannii [2] it was 0.25 µM. The outcome in the experiment with Mus musculus [3], in the experiment with Mus musculus [4] and in the experiment on Mus musculus [5] was Active.
For the compound `CC1(C)S[C@@H]2[C@H](NC(=O)Cc3ccccc3)C(=O)N2[C@H]1C(=O)O` [PENICILLIN G SODIUM], the MIC in the experiment on Pseudomonas aeruginosa was above 64 µM; in the experiment on Acinetobacter baumannii [1], above 64 µM; in the experiment with Staphylococcus aureus it was above 64 µM; with Acinetobacter baumannii [2], 64 µM.
For the compound `O=C(O)c1cn(C2CC2)c2cc(N3CCNCC3)c(F)cc2c1=O` [CIPROFLOXACIN], the MIC in the experiment with Pseudomonas aeruginosa was 0.25 µM (≈ 0.0828 µg/mL); in the experiment on Acinetobacter baumannii [1] it was above 64 µM; with Staphylococcus aureus, above 64 µM; in the experiment with Acinetobacter baumannii [2], 0.25 µM (≈ 0.0828 µg/mL).
